# Measurements as given in patent US20250281439A1, “USE OF L-ASPARTIC ACID BETA-HYDROXAMATE (L-ABH) IN PREPARATION OF DRUG FOR DIABETIC RETINOPATHY (DR) OR RETINOPATHY OF PREMATURITY (ROP)” (Wenzhou Medical University, priority 2024, published 2025).
# Entries after “also recorded” stand apart in the source; their conditions may differ.
# Key:
# db/db mice [1] = test: Visual electrophysiological examination (dark and light adaptation) after 18 weeks of gavage; type: in vivo; settings: gavage 20 mg/kg/day, 1 time per day, vs db/db+water
# Method: (§1) The 3-month-old db/db mice were randomly divided into two groups and subjected to intragastric gavage experiments: • group 1: gavage of water (denoted as db/db+water, 0.06 mL/10 g, 7 mice in total); • group 2: gavage of the L-ABH (denoted as db/db+L-ABH, 20 mg/kg/day, 10 mice in total).
# (§2) Each group was gavaged 1 time per day according to the dosage for 18 weeks.
# (§3) The 3-month-old wild-type mice were gavaged in the same manner as the group 1 (denoted as WT+water, 0.06 mL/10 g, 6 mice in total).
# (1) After the gavage, visual electrophysiological examinations were conducted on the mice in each group.
# In FIGS. 2A-2H, (dark adapted 0.01, dark adapted 3.0, dark adapted 10.0 and dark adapted 3.0 oscillatory potentials) show 4 tests under visual electrophysiological dark adaptation. […] In FIGS. 3A-3D, (light adapted 3.0, and light adapted 30 Hz flicker) show 2 tests after visual electrophysiological light adaptation.
# [2] = oral 20 mg/kg/d for three months (patent ZL 202110755406.0); 20 mg/kg/day; cited from earlier work
# db/db mice [3] = test: Retinal Brn3a immunofluorescence (RGC counting); type: in vivo; settings: gavage 20 mg/kg/day, 18 weeks, vs db/db+water
# Method: as §1, §2, §3
# (3) After the gavage, retinal Brn3a immunofluorescence experiment was conducted.
# After the mice were euthanized, periocular tissue of the mice was cut open, their eyeball of the mice was cut out and placed in a 5 mL centrifuge tube containing 4% PFA to allow fixation for 24 h, and the retinas were separated and cut into 4 petal shapes. The retinas were washed with PBS, permeabilized for 45 min, and blocked for 2 h. After removing a blocking solution, a Brn3a antibody was diluted (1:100) with PBS buffer containing 1% BSA, incubated overnight at 4° C., and then washed with the PBS. […] LSM 880 confocal laser microscope was used to take a full retinal mosaic, and then fluorescent images of the inner, middle, and outer 3 areas were intercepted on the 4 petals of the retina, that is, 12 areas of one retina were intercepted to allow fluorescence counting statistics. […]
# [4] = tested on: neonatal mice, hypoxia-induced retinopathy model; test: OIR experiment, hypoxia-induced retinopathy model (isolectin staining, area of retinal angiogenesis); type: in vivo; settings: intraperitoneal 7 mg/kg/day, 1 time a day from day 12 after birth, 5 days, vs OIR+Saline
# Method: In this example, the effect of L-ABH was verified in a hypoxia-induced model. The hypoxia-induced retinopathy model could be used as a model of ROP and a late-stage model of DR. OIR experiment: neonatal mice on the 7th day after birth and mother mice were randomly divided into 3 groups. Two groups of the neonatal mice and the mother mice were placed in an OIR oxygen chamber. The neonatal mice in group 1 were intraperitoneally injected with L-ABH (7 mg/kg/day) 1 time a day from the 12th day after birth for 5 consecutive days, recorded as OIR+L-ABH (ip), with a total of 5 mice. While the neonatal mice in group 2 were intraperitoneally injected with an equal amount of saline every day from the 12th day, recorded as OIR+Saline, with a total of 5 mice. After 5 day of hyperoxia, hypoxia-induced models were established in the group 1 and the group 2. The mice in group 3 were fed normally and intraperitoneally injected with an equal volume of saline every day, recorded as WT, with a total of 5 mice. After 5 day of hyperoxia, the neonatal and the mother mice were taken out from the oxygen chamber. The neonatal and the mother mice in the 3 groups were raised normally for 5 days, then the neonatal mice were sacrificed, subjected to stretched preparation and stained with isolectin, and then analyzed for the area of retinal angiogenesis. […]
# db/db mice [5] = test: OCT experiment (circular and linear scan; RNFL and total retinal thickness); type: in vivo; settings: gavage 20 mg/kg/day, 18 weeks, vs db/db+water
# Method: as §1, §2, §3
# (2) After the gavage, an OCT experiment was conducted.
# After the mice were anesthetized, tropicamide eye drops were used to dilate pupils, and after the mice entered deep anesthesia, ofloxacin was used to cover an ocular surface. The mice were placed on a mouse holder, their body position and the position knob were adjusted such that the lens was directly facing a center of mouse pupil. The position was fine-tuned from far to near such that an optic disc was located in a center of fundus image, and a focus was adjusted to make the image clear. A linear scan was conducted, where a linear scan position was moved to the vicinity of the optic disc, parameters and position were fine-tuned such that an OCT image passed through the optic disc and the optic disc was located in the middle, thus obtaining a cross-section of the retina from a temporal side to a nasal side. […]
# [6] = Toxicity and tolerability of L-ABH on long-term oral administration; type: in vivo; settings: no test described
# From the text: L-aspartic acid β-hydroxamate (L-ABH) is a reversible serine racemase (SR) inhibitor. […] However, there is no clear report on whether the L-ABH could be used for retinal neuroprotection as well as prevention and treatment of retinopathy.
# db/db mice [7] = test: Retinal digest preparation, PAS staining (endothelial cells, pericytes, acellular capillaries); type: in vivo; settings: gavage 20 mg/kg/day, 18 weeks, vs db/db+water
# Method: as §1, §2, §3
# (4) After the gavage, the retinal digest preparation stretched preparation-PAS staining experiment was conducted.
# After the mice were euthanized, eyeballs of the mice were removed and fixated with 4% PFA for 48 h, the retinas of the mice were separated and rinsed in ddH2O on a shaker at room temperature overnight, a fixative was removed, and the retinas were cut in half. The retinas were placed in 3% trypsin (prepared in 0.2 M Tris buffer, pH=7.4) and digested at 37° C. for 1 h. […] The nuclei were washed with running water, dehydrated routinely, transparentized with xylene, sealed with neutral gum, and then 6 to 8 fields of view were randomly selected for counting and observation under a microscope, and the number of pericytes and endothelial cells was calculated.
# db/db mice [8] = settings: previous studies, cited from earlier work
smiles,measurement,setting,value
"N[C@@H](CC(=O)NO)C(=O)O [L-ABH, L-aspartic acid β-hydroxamate]","functions of bipolar cells and amacrine cells in the retina (a-, b-wave, oscillatory potential, N1-P1 amplitudes)",db/db mice [1],significantly improve the functions of bipolar cells and amacrine cells
same,hepatotoxicity and nephrotoxicity,[2],not hepatotoxic or nephrotoxic; also recorded: without hepatotoxicity and nephrotoxicity
same,"RGCs (Brn3a fluorescence counting) in inner, middle and outer retina",db/db mice [3],significantly protect the RGCs in the middle and outer retina
same,"hypoxia-induced retinal angiogenesis (neovascular area, avascular area)",[4],significantly reduce the hypoxia-induced retinal angiogenesis
same,"degeneration of nerve fiber layer and medial nasal retina (RNFL thickness, total retinal thickness by OCT)",db/db mice [5],protect the degeneration of a nerve fiber layer and a medial nasal retina
same,"nausea, vomiting, diarrhea, lactic acidosis",[6]; long-term use,"does not cause nausea, vomiting, diarrhea, or lactic acidosis"
same,irritating effect on gastrointestinal tract,[6],no irritating effect on gastrointestinal tract
same,"microvascular lesions (ratio of endothelial cells to pericytes, amount of acellular capillaries)",db/db mice [7],significantly reduce the microvascular lesions
same,random blood glucose,db/db mice [8]; animal model of type II diabetes,reduce random blood glucose
same,oral glucose tolerance test (OGTT),db/db mice [8],significantly improve oral glucose tolerance test (OGTT)
same,sensitivity of insulin tolerance test (ITT),db/db mice [8],increase sensitivity of insulin tolerance test (ITT)
